The structures appear in SMILES notation. Converted amounts (≈) assume the structure as drawn. Like-named read-outs stand apart in the source and are kept apart here.

These results are taken from patent publication US6294526A, “Use of flavone derivatives for induction of β-lactam-sensitivity of MRSA” (priority 1998, dated 2001).

Assay [1] deals with MSSA. Description: antibacterial activity (MIC) by agar plate dilution method, MSSA strains. Format: cell-based, Methicillin-sensitive Staphylooccus aureus. The conditions noted are these: Staphylococcus aureus, 20 h, MSSA (7 strains); for MIC50: read-out: MIC50; for MIC: MSSA, range over strains, read-out: MIC. A digest of the protocol: (§1)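 Mueller-Hinton agar plates containing 2-fold serial β-lactam dilutions plus a fixed concentration of test sample; inoculum 10^6 CFU/ml, 37° C. for 20 hours. MIC read as concentration inhibiting growth; MIC80 and MIC50 = 80% and 50% growth inhibition. Flavones dissolved in methanol, others in 0.1 N NaOH.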

Assay [2] deals with MRSA. Description: antibacterial activity (MIC) by agar plate dilution method, MRSA strains. Format: cell-based, methicillin-resistant Staphylococcus aureus. The conditions noted are these: Staphylococcus aureus, 20 h, MRSA (20 strains); for MIC50: read-out: MIC50; for MIC: MRSA, range over strains, read-out: MIC. Put shortly: as §1
Assay [3] concerns MRSA or MSSA. Description: inhibition of methicillin resistance by flavone derivatives, MRSA or MSSA. Format: cell-based, Staphylococcus aureus. Particulars: methicillin with flavone derivative, Table 4. As to the method: (§2) The screening of the present invention may be carried out according to the agar plate dilution method designated by the Japan Society of Chemotherapy (Chemotherapy 29(1), 76-79 (1981)). Mueller-Hinton agar base semi-synthetic medium may be used for a plate culture medium for a sensitivity test together with an inoculating bacteria solution which may be prepared by culturing bacteria to be tested at 37° C. for 20 hours diluted with 8.5% by isotonic sodium chloride solution to 10^6 CFU/ml. Diluted β-lactam solutions are prepared by two times serial dilution. 1 ml of the diluted β-lactam solution and 1 ml of a predetermined concentration of a sample to be tested are added to 8 ml of the plate culture medium for a sensitivity test. […]
(§3) Mueller-Hinton agar base semi-synthetic medium was used as a plate culture medium for the sensitivity test, and an inoculating bacteria solution was prepared by culturing bacteria to be tested at 37° C. for 20 hours and diluting with 8.5% by weight isotonic sodium chloride solution to a final concentration of 10^6 CFU/ml. […] To the resultant plate culture medium for the sensitivity test, the inoculating bacteria were inoculated using a microplanter (SAKUMASEISAKUSYO Co.), cultured for 20 hours at 37° C. and then minimum inhibition concentration (MIC) was assessed.

For assay [4], the system named is MRSA. Description: antibacterial activity of antibiotics alone and in the presence of apigenin (4 μg/ml), MRSA. It counts as cell-based, methicillin-resistant Staphylococcus aureus. Particulars: for MIC50: MRSA. A digest of the protocol:
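MICs were determined by agar plate dilution on Mueller-Hinton medium with two-fold serial antibiotic dilutions, alone or together with apigenin at 4 μg/ml. The MRSA inoculum was 10^6 CFU/ml. Plates were incubated at 37 °C for 20 h.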

In assay [5] the test system is MSSA. Description: antibacterial activity of methicillin in the presence of flavone derivatives, MSSA. Format: cell-based, Methicillin-sensitive Staphylooccus aureus. Particulars: Staphylococcus aureus, 20 h; methicillin alone; MSSA (7 strains). The procedure: as §2, §3
The test system of assay [6] is MRSA. Description: antibacterial activity of methicillin in the presence of flavone derivatives, MRSA. It counts as cell-based, methicillin-resistant Staphylococcus aureus. The procedure: as §2, §3
Assay [7] concerns MRSA No. 5. Description: effect of flavone on antibacterial activity of antibiotics against MRSA No. 5 in bouillon (broth microdilution). Format: cell-based, methicillin-resistant Staphylococcus aureus. Particulars: for MIC: Staphylococcus aureus, MRSA, 20 h, read-out: MIC. As to the method: Alternatively, the screening of the present invention may be carried out according to the broth microdilution method designated by the Japan Society of Chemotherapy (Chemotherapy 38(1), 102-105 (1990)). Muellar-Hinton broth is used as a culture medium for the sensitivity test, and 50 mg/ml of calcium(Ca) ion, 25 mg/ml of magnesium(Mg) ion, and 2% sodium chloride (NaCl) are added thereto. An inoculating bacteria solution may be prepared by culturing bacteria to be tested in Mueller-Hinton broth at 37° C. for 20 hours and diluting with Mueller-Hinton broth to 10^5 CFU/ml final concentration of inoculating bacteria. Diluted β-lactam solution is prepared by two times serial dilution series. 10 μl of the diluted β-lactam solution and 10 μl of a predetermined concentration of a sample of bacteria to be tested are added to mix with 80 μl of the culture medium for the sensitivity test. To the resultant plate culture medium for sensitivity test, the inoculating bacteria are added and culturing is carried out for 20 hours at 37° C. and then assessment for a minimum inhibition concentration (MIC) is carried out. A minimum inhibition concentration means the minimum concentration of β-lactam at which growth of bacteria is not recognized by the naked eye.
(G) Antibacterial activity of 6 β-lactams, that is, cephalothin, cefuroxime, cefotaxime, cefoxitin, streptomycin and vancomycin, against MRSA in the presence of 0.5 mM flavone was studied in bouillon.
Muellar-Hinton broth was used as a culture medium for the sensitivity test, and 50 mg/ml of calcium (Ca) ion, 25 mg/ml of maqnesium (Mg) ion, 2% sodium chloride (NaCl) were added thereto. An inoculating bacteria solution was prepared by culturing bacteria to be tested with Mueller-Hinton broth at 37° C. for 20 hours and diluting with Mueller-Hinton broth to 10^5 CFU/ml final concentration of inoculating bacteria. Diluted β-lactam solutions were prepared in two times serial dilutions starting from 10 mM. Ten microliters of the diluted β-lactam solution and 10 μl of 5 mM of flavone were mixed with 80 μl of the culture medium for the sensitivity test in a microplate having U-shaped wells and samples of bacteria to be tested were added thereto. The mixture was cultured 20 hours at 37° C. and then assessed for minimum inhibition concentration (MIC). Minimum inhibition concentration means minimum concentration of a β-lactum at which growth of bacteria is inhibited to the extent that bacteria is not recognized by the naked eye.
In general terms: In broth dilution the organism is exposed to a series of concentrations in liquid medium.

In assay [8] the test system is MRSA No. 5. The assay is described as above. Particulars: for MIC: Staphylococcus aureus, MRSA, 20 h, read-out: antibacterial activity of methicillin against MRSA No. 5. It counts as cell-based, methicillin-resistant Staphylococcus aureus.

Usually MIC50 stands for the lowest concentration that inhibits either 50% of growth or 50% of the strains tested, depending on the study. As for `O=C1c2c(O)cc(O)cc2O[C@H](c2ccc(O)c(O)c2)[C@H]1O` [(+)-Taxifolin, (+)-taxifolin], the MIC50 in assay [1] and in assay [2] was above 250 µg/mL each time. Besides, the MIC in assay [1] and in assay [2] was above 250 µg/mL throughout. The “inhibition of resistance to methicillin (in words)” value in assay [3] is on record as “inhibited resistance to methicillin”.
As for `O=c1cc(-c2ccccc2)oc2ccccc12` [Flavone, flavone], the MIC50 in assay [1] and in assay [2] was above 250 µg/mL in each case. Also, the MIC in assay [1] and in assay [2] was above 250 µg/mL in each case. In assay [3], the “inhibition of resistance to methicillin (in words)” value is reported as “inhibited the most strongly”.
As to `COc1cccc(OC)c1C(=O)N[C@@H]1C(=O)N2[C@@H]1SC(C)(C)[C@@H]2C(=O)O` [Methicillin, methicillin], the MIC50 in assay [4] (Antibiotics alone) is above 250 µg/mL; in assay [4] (Antibiotics alone, listed as methicillin), 1000 µg/mL; in assay [4] (Staphylococcus aureus, 20 h, antibiotic with Apigenin (4 μg/ml), read-out: MIC50), 15.6 µg/mL; in assay [5], 2 µg/mL; in assay [6] (Staphylococcus aureus, 20 h, methicillin alone, MRSA (20 strains)), above 250 µg/mL. Besides, in assay [4] (MIC50, methicillin plus 4 μg/ml apigenin vs methicillin alone), the “times as potent as methicillin alone” value is “about 700 times”. In assay [4] (apigenin 4 μg/ml or less than its MIC), the “inhibition of β-lactam resistant MRSA / improvement of antibacterial effect with apigenin (in words)” value is reported as “inhibited β-lactam resistant MRSA”. Further, the MIC was 0.98 to 2 µg/mL in assay [5]; 1000 µM (≈ 380 µg/mL) in assay [7] (Concentration of flavone 0 mM); 15.6 µM (≈ 5.93 µg/mL) in assay [7] (Concentration of flavone 0.5 mM); above 1000 µM in assay [8] (Control (no flavone)); 1000 µM (≈ 380 µg/mL) in assay [8] (flavone 0.11 mM (25 μg/ml)); 31.2 µM (≈ 11.9 µg/mL) in assay [8] (flavone 0.2 mM). Besides, the MIC was 31.2 µM (≈ 11.9 µg/mL) in assay [8] (flavone 0.23 mM (50 μg/ml)) and 15.6 µM (≈ 5.93 µg/mL) in assay [8] (flavone 0.5 mM). Besides, the “antibacterial activity of methicillin on MRSA No.5 (in words)” value in assay [6] (under the presence of flavone) is given as “strong on MRSA No.5”. In assay [7] (in the presence of flavone 0.5 mM), the “inhibitory effect on resistance of MRSA No.5 (in words)” value is “showed inhibitory effect on resistance of MRSA No.5”. For the same molecule, the results for the “antibacterial activity of methicillin against MRSA (in words)” value in assay [8] (flavone 0.2 mM) and in assay [8] (in proportion to increase of flavone concentration) were “prominently shown” and “increased”, respectively.
